Assay results from patent US5612373A, “Certain diacyl hydrazine derivatives” (Zeneca Limited, priority 1993, dated 1997).

Key:
[1] = target: T1, ADP stimulated platelet aggregation in human, citrated, platelet-rich plasma (Homo sapiens, UniProt P05106+P08514); assay: test (a): inhibition of ADP stimulated platelet aggregation (Born); assay type: cell-based; details: ADP-induced aggregation, read-out: pA2 (potency of platelet aggregation inhibition) (converted)
T1 construct: aggregating human, citrated, platelet-rich plasma; endogenous in cells; host or cells: human platelets in citrated platelet-rich plasma
Excerpt: (i) aggregating human, citrated, platelet-rich plasma by addition of adenosine diphosphate (ADP) so as to generate a dose-response curve;
(ii) generating a dose-response curve for ADP stimulated platelet aggregation in the presence of increasing amounts of a test compound (generally in the range 10^-5 M to 10^-10 M); and
(iii) calculating a pA2 value indicating potency of platelet aggregation inhibition for the test compound, averaged over several concentrations, from the calculated 50% response value for ADP aggregation in the presence and absence of the test compound.

[2] = target: T2, purified human platelet fibrinogen receptor (GPIIb/IIIa) (Homo sapiens, UniProt P05106+P08514); assay: test (b): GPIIb/IIIa ELISA, inhibition of biotinylated fibrinogen binding; details: biotinylated fibrinogen 10 nM, read-out: pIC50 (-log(IC50)), 50% inhibition of biotinylated fibrinogen binding (converted)
T2 construct: Glycoprotein IIb/IIIa is isolated from human platelet lysates; from tissue
Description: (i) Preparation of human platelet lysates.
Platelet rich plasma (prp) is harvested by centrifugation (1000 rpm, 15 minutes) of whole blood anticoagulated with acid citrate dextrose (trisodium citrate 85 mM, citric acid 70 mM, d-glucose 110 mM), 1 part to 6 parts blood. Prostacyclin (PGI2, 1 μM) is added to the prp before centrifugation (2400 rpm, 15 min) and the resulting pellet is resuspended in modified Tyrodes' solution (NaCl 130 mM, KCl 26 mM, NaHCO3 12 mM, NaH2 PO4 0.5 mM, MgCl2 1 mM, CaCl2 20 mM, Glucose 12 mM, HEPES 5 mM) containing bovine serum albumin 3.5 g/L, PGI2 1 μM and hirudin 0.5 U/ml. The platelet suspension is centrifuged (2400 rpm, 15 minutes) and the resultant pellet resuspended in 500 μl of lysis buffer (octyl glucoside 50 mM, HEPES 10 mM, NaCl 150 mM, CaCl2 1 mM, MgCl2 1 mM, PMSF 1 mM, NEM 10 mM, leupeptin 0.1 mM), agitated at 4° C. for 15 minutes then centrifuged at 24000 rpm, 15 minutes. The supernatant is stored at 4° C. and the pellet re-suspended in 500 μl of lysis buffer. […]
96 well microtitre plates are coated with 100 μl purified human platelet fibrinogen receptor (GPIIb/IIIa) diluted in coating buffer (Tris-HCl 20 mM, NaCl 150 mM, CaCl2 1 mM, pH7.4) and left overnight at 4° C. […] Colour is allowed to develop for 10-15 minutes before optical densities are read at 650 nm. […]

platelet aggregation = assay: test (a) modified: activity after oral dosing to dogs; assay type: in vivo; details: dosed orally to dogs at 3 mg/kg
Description: Test (a) may be modified so as to assess the effects of a test compound ex vivo on the aggregation of human blood platelets after administration of the test compound to a laboratory animal, such as a rat, rabbit, guinea pig, mouse or dog. For example, groups of fourmale, fasted Alderley Park Wistar rats are orally dosed with a test compound or appropriate vehicle, and at suitable time intervals (1, 3, 5 and 8 hours after dosing) animals are anaesthetised with fluothane and bled by heart puncture. Blood is collected into 3.2% citrate (1 part to 9 parts whole blood) and platelet poor plasma (ppp) prepared by centrifugation (4500×g for 10 minutes). […]
Equal volumes (125 μl ) of rat ppp and human prp are mixed together, ADP added, and the whole incubated (37° C.) and stirred (900 rpm) in a BioData platelet aggregometer. Aggregation is induced with ADP and agonist EC50 values calculated for human prp/rat ppp mixtures from animals dosed with test compound or vehicle. A mean concentration ratio (concentration of ADP required to cause a 50% aggregation response in human prp/rat ppp mixtures from animals dosed with antagonist, divided by the concentration of ADP to cause 50% aggregation in human prp/rat ppp mixtures from animals dosed with vehicle) is calculated at each time point. […]

T1 sequence (P08514 32-887 limits assumed): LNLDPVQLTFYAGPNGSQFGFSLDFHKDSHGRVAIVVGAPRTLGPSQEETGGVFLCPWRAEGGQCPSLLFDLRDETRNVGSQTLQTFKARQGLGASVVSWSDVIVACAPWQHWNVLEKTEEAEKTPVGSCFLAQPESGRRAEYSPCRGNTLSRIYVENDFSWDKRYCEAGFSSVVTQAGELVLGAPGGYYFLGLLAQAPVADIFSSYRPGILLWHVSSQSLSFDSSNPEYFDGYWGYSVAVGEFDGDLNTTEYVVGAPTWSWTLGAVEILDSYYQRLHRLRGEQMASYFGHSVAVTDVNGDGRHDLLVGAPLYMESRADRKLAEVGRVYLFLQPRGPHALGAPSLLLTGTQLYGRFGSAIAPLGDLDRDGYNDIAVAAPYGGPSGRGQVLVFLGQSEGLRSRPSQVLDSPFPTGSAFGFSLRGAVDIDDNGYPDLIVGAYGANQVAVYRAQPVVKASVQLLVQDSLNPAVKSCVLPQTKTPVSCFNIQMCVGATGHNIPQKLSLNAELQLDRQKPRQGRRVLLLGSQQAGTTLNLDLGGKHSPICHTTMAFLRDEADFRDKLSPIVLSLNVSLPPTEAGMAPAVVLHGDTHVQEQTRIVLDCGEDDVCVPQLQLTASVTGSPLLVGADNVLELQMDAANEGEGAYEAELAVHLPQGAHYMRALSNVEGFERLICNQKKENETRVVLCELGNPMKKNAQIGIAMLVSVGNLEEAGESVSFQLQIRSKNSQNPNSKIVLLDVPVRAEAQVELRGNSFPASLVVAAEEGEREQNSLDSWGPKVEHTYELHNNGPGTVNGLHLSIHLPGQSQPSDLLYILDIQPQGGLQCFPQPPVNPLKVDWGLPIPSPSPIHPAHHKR
T1 sequence (P08514 891-1039 limits assumed): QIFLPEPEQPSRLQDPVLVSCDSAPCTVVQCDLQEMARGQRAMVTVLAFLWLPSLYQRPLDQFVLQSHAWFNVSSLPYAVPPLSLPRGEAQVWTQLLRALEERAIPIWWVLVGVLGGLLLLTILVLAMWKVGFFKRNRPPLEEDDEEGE
T1 sequence (P05106 27-788): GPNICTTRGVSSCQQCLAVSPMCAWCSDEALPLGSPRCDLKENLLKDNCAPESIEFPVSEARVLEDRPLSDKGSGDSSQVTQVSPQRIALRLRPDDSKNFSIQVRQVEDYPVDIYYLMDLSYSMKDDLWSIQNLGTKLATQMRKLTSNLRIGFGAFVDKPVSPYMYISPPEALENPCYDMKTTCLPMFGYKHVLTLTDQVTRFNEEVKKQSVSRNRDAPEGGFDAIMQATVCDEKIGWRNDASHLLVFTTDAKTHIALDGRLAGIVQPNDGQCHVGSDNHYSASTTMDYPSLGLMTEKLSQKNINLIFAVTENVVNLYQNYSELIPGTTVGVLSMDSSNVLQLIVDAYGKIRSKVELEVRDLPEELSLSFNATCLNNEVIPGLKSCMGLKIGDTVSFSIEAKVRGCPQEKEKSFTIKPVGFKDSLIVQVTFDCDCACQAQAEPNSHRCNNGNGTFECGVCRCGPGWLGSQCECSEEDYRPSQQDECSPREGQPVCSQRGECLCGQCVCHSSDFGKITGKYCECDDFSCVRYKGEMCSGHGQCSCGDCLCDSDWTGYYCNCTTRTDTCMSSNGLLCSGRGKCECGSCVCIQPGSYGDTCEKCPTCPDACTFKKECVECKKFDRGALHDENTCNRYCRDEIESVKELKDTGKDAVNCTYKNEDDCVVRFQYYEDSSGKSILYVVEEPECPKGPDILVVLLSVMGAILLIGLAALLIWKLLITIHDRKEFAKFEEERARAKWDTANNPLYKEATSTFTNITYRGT
T2 sequence (P08514 32-887 limits assumed): as the sequence (P08514 32-887 limits assumed) above
T2 sequence (P08514 891-1039 limits assumed): as the sequence (P08514 891-1039 limits assumed) above
T2 sequence (P05106 27-788): as the sequence (P05106 27-788) above

Row | SMILES | Kb [1] [nM] | IC50 [2] [nM] | duration of activity after oral dosing (platelet aggregation)
1 | COC(=O)COc1ccc(C(=O)NNC(=O)c2ccc(C(=N)N)cc2)cc1 [Example 12, Methyl 4-[3-(4-amidinobenzoyl)carbazoyl]phenoxyacetate] | 200 | 1120 | up to 24 hours
2 | N=C(N)c1ccc(C(=O)NNC(=O)c2ccc(OCC(=O)O)cc2)cc1 [Example 13, 4-[3-(4-Amidinobenzoyl)carbazoyl]phenoxyacetic acid] | 7.94 | 15.8 | –
